According to patent US10017527B2, “KLK4 inhibitors” (Universiteit Antwerpen, priority 2014, dated 2018):

How the values were obtained:
Type in all cases: biochemical
KLK4 = target: T1, KLK4 (Homo sapiens, UniProt Q9Y5K2); experiment: KLK4 enzymatic inhibition, fluorogenic substrate Boc-Val-Pro-Arg-AMC; settings: 15 min pre-incubation at 37° C., Tris buffer pH 8.3; read-out: IC50 KLK4
T1 construct: purchased Viktor Magdolen (TUM), supplied by an academic laboratory

KLK2 (human) = target: T2, KLK2 (human) (Homo sapiens, UniProt P20151); experiment: KLK2 inhibition, fluorogenic substrate H-Pro-Phe-Arg-AMC; settings: Tris buffer pH 8.3; read-out: IC50 KLK2
T2 construct: purchased Viktor Magdolen, TUMunich (TUM), supplied by an academic laboratory
Procedure, shortened: (§1)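 Chromogenic tPA and neutrophil elastase assays were monitored at 405 nm absorption. KLK1 and KLK2 IC50s came from a common method.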

KLK1 (human) = target: T3, KLK1 (human) (Homo sapiens, UniProt P06870); experiment: KLK1 inhibition, fluorogenic substrate H-Pro-Phe-Arg-AMC; settings: Tris buffer pH 7.8; read-out: IC50 KLK1
T3 construct: purchased Prospec
Procedure, shortened: as §1

KLK8 (human) = target: T4, KLK8 (human) (Homo sapiens, UniProt O60259); experiment: KLK8 inhibition, fluorogenic substrate Boc-Val-Pro-Arg-AMC; settings: Tris buffer pH 8; read-out: IC50 KLK8
T4 construct: purchased Viktor Magdolen, TUMunich (TUM), supplied by an academic laboratory
T4 sequence (O60259 33-260): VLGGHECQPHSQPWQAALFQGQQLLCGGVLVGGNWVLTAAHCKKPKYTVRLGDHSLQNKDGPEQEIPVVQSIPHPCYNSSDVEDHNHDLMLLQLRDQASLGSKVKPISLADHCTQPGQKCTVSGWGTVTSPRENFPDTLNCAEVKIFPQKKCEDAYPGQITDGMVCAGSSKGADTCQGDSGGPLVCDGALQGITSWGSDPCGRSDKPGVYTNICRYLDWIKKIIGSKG
Source text: (§2) The IC50 values For KLK1, KLK2 and KLK8 were obtained in a similar way. For plasmin, tPA, thrombin, Fxa, HNE, Plasma kallikrein Chromogenic substrates were used (absorption: 405 nm). (KLK2, KLK4, KLK8 were supplied by Viktor Magdolen TUMunich (TUM)).

tPA (recombinant) = target: T5, tPA (recombinant) (Homo sapiens, UniProt P00750); experiment: tPA inhibition, chromogenic substrate Biophen CS-05(88); settings: Tris buffer pH 8.3; read-out: IC50 tPA
T5 construct: purchased Nodia
Procedure, shortened: as §1

Thrombine (human plasma) = target: T6, Thrombine (human plasma) (Homo sapiens, UniProt P00734); experiment: Thrombin inhibition, chromogenic substrate Biophen CS-21(66); settings: Thrombin; Tris buffer pH 8.3; read-out: IC50 THR
T6 construct: purchased Sigma-Aldrich; host or cells: human plasma

Plasmine (human plasma) = target: T7, Plasmine (human plasma) (Homo sapiens, UniProt P00747); experiment: Plasmin inhibition, chromogenic substrate Biophen CS-21(66); settings: Plasmin; Tris buffer pH 7.4; read-out: IC50 PLM
T7 construct: purchased Sigma-Aldrich; host or cells: human plasma
Source text: as §2

PlasmaKLK (human plasma) = target: T8, PlasmaKLK (human plasma) (Homo sapiens, UniProt P03952); experiment: Plasma kallikrein inhibition, chromogenic substrate Biophen CS-31(02); settings: Plasma KLK; Tris buffer pH 7.8; read-out: IC50 pKLK
T8 construct: purchased Sigma-Aldrich; host or cells: human plasma
Source text: as §2

[1] = target: T9, Neurtophil Elastase(human) (Homo sapiens, UniProt P08246); experiment: Neutrophil elastase inhibition, chromogenic substrate MeOSuc-Ala-Ala-Pro-Val-pNA; settings: Tris buffer pH 7.8; read-out: IC50 HNE
T9 construct: purchased Enzo-life sciences
T9 sequence (P08246 30-267): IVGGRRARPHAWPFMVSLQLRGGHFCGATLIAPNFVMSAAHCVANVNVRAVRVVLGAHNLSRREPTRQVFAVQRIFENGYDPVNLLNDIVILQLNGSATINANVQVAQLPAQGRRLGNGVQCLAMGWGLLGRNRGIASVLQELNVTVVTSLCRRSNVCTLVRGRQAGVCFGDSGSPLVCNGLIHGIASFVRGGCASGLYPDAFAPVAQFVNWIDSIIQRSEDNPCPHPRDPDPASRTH
Source text: as §2

AcHE = AcHE (Homo sapiens, UniProt P22303); experiment: AcHE inhibition; settings: read-out: IC50 AcHE
Matriptase = target: T10, Matriptase (Homo sapiens, UniProt Q9Y5Y6); experiment: Matriptase inhibition; settings: Matriptase; read-out: IC50 MAT
T10 sequence (Q9Y5Y6 1-855): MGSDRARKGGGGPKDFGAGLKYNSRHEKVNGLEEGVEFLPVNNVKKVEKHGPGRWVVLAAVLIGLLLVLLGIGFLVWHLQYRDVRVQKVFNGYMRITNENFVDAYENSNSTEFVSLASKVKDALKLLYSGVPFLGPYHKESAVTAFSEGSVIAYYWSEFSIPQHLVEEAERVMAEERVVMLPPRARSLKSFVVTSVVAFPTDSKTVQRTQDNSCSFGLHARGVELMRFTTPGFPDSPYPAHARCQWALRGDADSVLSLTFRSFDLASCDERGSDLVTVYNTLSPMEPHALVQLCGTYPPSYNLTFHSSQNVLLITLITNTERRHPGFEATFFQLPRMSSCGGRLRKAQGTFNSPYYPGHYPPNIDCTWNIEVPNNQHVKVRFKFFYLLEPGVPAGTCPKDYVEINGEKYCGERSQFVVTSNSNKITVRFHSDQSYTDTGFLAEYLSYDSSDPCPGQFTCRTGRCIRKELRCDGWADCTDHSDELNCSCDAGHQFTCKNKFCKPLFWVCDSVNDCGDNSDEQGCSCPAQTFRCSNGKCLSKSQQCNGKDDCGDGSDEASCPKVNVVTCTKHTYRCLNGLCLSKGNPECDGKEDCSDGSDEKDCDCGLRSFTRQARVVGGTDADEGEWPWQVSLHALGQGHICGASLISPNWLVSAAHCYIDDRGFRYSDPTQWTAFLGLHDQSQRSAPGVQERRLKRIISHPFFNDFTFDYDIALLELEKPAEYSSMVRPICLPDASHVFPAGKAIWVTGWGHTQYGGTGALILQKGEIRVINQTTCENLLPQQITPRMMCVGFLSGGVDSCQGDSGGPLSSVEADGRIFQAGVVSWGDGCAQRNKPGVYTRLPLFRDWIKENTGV

T5 sequence (P00750 36-562, species assumed): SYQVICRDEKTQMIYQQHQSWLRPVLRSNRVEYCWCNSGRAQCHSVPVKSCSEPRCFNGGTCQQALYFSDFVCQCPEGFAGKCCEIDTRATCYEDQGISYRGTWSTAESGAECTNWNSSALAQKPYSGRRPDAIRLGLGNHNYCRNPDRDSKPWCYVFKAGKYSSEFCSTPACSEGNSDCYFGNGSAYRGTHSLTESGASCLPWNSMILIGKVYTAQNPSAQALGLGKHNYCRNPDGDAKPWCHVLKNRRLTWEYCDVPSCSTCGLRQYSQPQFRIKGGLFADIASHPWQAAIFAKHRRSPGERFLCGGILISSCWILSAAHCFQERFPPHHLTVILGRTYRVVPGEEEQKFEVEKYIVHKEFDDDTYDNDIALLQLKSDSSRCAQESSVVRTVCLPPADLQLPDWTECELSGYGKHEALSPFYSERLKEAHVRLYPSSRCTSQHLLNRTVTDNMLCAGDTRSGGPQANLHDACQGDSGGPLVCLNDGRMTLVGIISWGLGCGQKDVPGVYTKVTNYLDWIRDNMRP
T3 sequence (P06870 25-262): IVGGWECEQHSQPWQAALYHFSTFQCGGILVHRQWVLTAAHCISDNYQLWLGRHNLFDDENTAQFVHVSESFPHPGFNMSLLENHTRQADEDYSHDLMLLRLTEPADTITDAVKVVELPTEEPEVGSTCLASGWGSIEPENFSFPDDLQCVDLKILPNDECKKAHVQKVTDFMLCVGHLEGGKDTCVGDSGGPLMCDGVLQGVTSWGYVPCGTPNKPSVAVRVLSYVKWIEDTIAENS
T7 sequence (P00747 581-810 limits assumed): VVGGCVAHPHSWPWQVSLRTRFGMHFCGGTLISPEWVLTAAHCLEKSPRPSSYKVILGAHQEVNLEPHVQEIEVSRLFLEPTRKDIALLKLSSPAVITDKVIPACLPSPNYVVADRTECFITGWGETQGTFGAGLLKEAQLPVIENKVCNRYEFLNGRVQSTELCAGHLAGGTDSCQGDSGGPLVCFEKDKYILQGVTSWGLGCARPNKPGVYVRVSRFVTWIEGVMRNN
T7 sequence (P00747 98-580 partner limits assumed): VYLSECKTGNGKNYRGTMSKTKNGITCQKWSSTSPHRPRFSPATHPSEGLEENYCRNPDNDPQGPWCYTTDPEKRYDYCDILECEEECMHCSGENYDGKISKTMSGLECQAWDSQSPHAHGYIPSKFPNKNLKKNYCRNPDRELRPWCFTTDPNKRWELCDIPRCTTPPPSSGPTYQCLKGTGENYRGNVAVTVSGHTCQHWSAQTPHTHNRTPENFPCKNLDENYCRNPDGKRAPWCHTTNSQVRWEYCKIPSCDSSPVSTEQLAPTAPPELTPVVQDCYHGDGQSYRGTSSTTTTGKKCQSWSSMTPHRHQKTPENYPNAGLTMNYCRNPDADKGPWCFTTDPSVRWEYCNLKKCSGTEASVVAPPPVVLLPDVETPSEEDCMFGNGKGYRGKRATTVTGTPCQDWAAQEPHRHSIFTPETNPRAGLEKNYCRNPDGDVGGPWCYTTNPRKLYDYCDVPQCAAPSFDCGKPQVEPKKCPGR
Chain of AcHE (P22303 32-614): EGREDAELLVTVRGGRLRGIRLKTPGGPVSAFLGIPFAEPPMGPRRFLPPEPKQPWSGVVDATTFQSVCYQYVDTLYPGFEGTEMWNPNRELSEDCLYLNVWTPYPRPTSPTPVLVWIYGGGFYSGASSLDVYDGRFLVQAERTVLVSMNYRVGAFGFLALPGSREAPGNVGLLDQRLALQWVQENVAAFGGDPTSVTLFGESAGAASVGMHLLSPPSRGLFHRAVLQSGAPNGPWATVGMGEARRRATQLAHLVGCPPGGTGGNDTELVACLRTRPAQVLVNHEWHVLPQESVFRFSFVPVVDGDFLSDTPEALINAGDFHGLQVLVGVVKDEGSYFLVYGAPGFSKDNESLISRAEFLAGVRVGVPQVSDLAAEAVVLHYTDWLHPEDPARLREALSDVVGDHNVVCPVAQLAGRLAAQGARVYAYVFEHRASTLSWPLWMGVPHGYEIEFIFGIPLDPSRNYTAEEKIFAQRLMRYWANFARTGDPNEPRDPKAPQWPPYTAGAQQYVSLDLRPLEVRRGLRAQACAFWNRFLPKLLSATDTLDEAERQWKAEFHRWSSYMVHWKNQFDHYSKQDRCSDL
T1 sequence (Q9Y5K2 31-254): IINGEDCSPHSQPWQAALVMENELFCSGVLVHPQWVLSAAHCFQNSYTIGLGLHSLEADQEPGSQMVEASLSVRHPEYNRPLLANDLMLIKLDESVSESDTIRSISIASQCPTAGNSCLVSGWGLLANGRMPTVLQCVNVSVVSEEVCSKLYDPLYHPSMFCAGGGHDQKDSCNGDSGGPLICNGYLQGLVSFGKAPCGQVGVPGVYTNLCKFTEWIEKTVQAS
T2 sequence (P20151 25-261): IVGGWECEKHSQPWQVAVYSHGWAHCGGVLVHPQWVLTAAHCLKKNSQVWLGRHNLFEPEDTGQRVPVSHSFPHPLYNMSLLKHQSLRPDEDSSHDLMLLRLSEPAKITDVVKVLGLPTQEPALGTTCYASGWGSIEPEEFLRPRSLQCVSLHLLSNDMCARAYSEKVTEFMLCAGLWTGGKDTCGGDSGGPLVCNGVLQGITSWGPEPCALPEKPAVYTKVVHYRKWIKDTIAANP
T8 sequence (P03952 391-638 limits assumed): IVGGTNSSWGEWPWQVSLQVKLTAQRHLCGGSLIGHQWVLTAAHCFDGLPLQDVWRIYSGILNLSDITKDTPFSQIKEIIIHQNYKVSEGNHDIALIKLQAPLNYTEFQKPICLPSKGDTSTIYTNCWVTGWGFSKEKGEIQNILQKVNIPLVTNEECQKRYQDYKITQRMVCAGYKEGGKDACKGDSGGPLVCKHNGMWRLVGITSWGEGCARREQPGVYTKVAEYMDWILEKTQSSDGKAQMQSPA
T8 sequence (P03952 20-390 partner limits assumed): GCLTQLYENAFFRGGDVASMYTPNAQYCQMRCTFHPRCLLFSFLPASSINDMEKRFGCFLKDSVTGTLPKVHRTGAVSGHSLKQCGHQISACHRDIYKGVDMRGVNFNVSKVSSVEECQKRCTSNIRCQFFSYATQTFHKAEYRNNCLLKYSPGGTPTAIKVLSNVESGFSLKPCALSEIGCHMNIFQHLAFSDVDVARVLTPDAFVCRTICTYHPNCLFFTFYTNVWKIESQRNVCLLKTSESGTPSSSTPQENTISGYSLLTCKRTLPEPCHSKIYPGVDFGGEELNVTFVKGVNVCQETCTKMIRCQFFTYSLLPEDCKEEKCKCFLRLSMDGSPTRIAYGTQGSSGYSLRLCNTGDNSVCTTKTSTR

Row | SMILES | IC50 (KLK4) | IC50 (KLK2 (human)) | IC50 (KLK1 (human)) | IC50 (KLK8 (human)) | IC50 (tPA (recombinant)) | IC50 (Thrombine (human plasma)) | IC50 (Plasmine (human plasma)) | IC50 (PlasmaKLK (human plasma)) | IC50 [1] | IC50 (AcHE) | IC50 (Matriptase)
1 | COCCOCCOC(=O)NC(c1ccc(NC(=N)N)cc1)P(=O)(Oc1ccccc1)Oc1ccccc1.O=C(O)C(F)(F)F (stereo not shown) [Compound 28, 2-(2-methoxyethoxy)ethyl((diphenoxyphosphoryl)(4-guanidinophenyl)methyl) carbamate 2,2,2-trifluoroacetate] | < 0.1 µM | 0.1 to 1 µM | 10 to 250 µM | 10 to 250 µM | > 250 µM | > 250 µM | 10 to 250 µM | 10 to 250 µM | > 250 µM | 10 to 250 µM | 2.5 to 10 µM
2 | N=C(N)Nc1ccc(C(NC(=O)OCCOc2ccccc2)P(=O)(Oc2ccccc2)Oc2ccccc2)cc1.O=C(O)C(F)(F)F (stereo not shown) [Compound 30, 2-phenoxyethyl((diphenoxyphosphoryl)(4-guanidinophenyl)methyl)carbamate 2,2,2-trifluoroacetate] | < 0.1 µM | 0.1 to 1 µM | 2.5 to 10 µM | 10 to 250 µM | > 250 µM | > 250 µM | 10 to 250 µM | > 250 µM | > 250 µM | 10 to 250 µM | 2.5 to 10 µM
